# Calls of active or inactive are those of the source. No cut-off for these calls is given here.
# Key:
# Escherichia coli = assay: Antibacterial activity against Escherichia coli ATCC 25922 assessed as inhibition of bacterial growth incubated for 24 hrs; format: functional
# [1] = Cytotoxicity against HUVEC cells assessed as cell viability at 25 ug/ml measured after 24 hrs by MTT assay relative to control; format: toxicity, cell-based; conditions: human, at 25 µg/mL, read-out: Activity
# Staphylococcus aureus [2] = assay: Antibacterial activity against Staphylococcus aureus ATCC 25923 assessed as inhibition of bacterial growth incubated for 24 hrs; format: functional
# Pseudomonas aeruginosa [3] = assay: Induction of morphological changes in Pseudomonas aeruginosa assessed as appearance of blurred intracellular boundaries with disintegration of bacterial structure at 2 ug/ml incubated for 3 hrs by SEM analysis; format: functional, organism-based; conditions: dose 2.0 µg/ml
# Staphylococcus aureus [4] = assay: Induction of morphological changes in methicillin resistant Staphylococcus aureus assessed as appearance of concaved bacterial surface at 2 ug/ml incubated for 3 hrs by SEM analysis; format: functional, organism-based; conditions: dose 2.0 µg/ml
# Cell membrane [5] = assay: Induction of cell membrane damage in methicillin-resistant Staphylococcus aureus assessed as increase in nucleic acid leakage at 0 to 2 ug/ml incubated for 12 hrs by optical density based microplate reader analysis; format: cell membranes; conditions: dose 0-2 µg/ml
# Staphylococcus aureus [6] = assay: Antibacterial activity against Staphylococcus aureus CMCC(B)26003 assessed as inhibition of bacterial growth incubated for 24 hrs; format: functional
# Pseudomonas aeruginosa [7] = assay: Antibacterial activity against Pseudomonas aeruginosa ATCC 27853 assessed as inhibition of bacterial growth incubated for 24 hrs; format: functional
# Enterococcus faecalis [8] = assay: Potency index, ratio of norfloxacin MIC to test compound MIC for antibacterial activity against vancomycin-resistant Enterococcus faecalis clinical isolate p1-2007225053 assessed as inhibition of bacterial growth incubated for 24 hrs; format: functional
# Staphylococcus aureus [9] = assay: Antibacterial activity against ciprofloxacin-treated Staphylococcus aureus ATCC 6538 assessed as inhibition of bacterial growth measured after 24 hrs; format: functional
# Pseudomonas aeruginosa [10] = assay: Potency index, ratio of norfloxacin MIC to test compound MIC for antibacterial activity against Pseudomonas aeruginosa clinical isolate assessed as inhibition of bacterial growth incubated for 24 hrs; format: functional
# Cell membrane [11] = assay: Induction of cell membrane permeability in methicillin-resistant Staphylococcus aureus assessed as increase in fluorescence intensity at 1 to 2 ug/ml incubated for 6 hrs by PI staining based fluorescence analysis; format: cell membranes; conditions: dose 1-2 µg/ml
# Klebsiella pneumoniae = assay: Antibacterial activity against Klebsiella pneumoniae clinical isolate assessed as inhibition of bacterial growth incubated for 24 hrs; format: functional
# Staphylococcus aureus [12] = assay: Antibacterial activity against Staphylococcus aureus CMCC(B)26001 assessed as inhibition of bacterial growth incubated for 24 hrs; format: functional
# Cell membrane [13] = assay: Induction of cell membrane permeability in Pseudomonas aeruginosa assessed as increase in fluorescence intensity at 1 to 2 ug/ml incubated for 6 hrs by PI staining based fluorescence analysis; format: cell membranes; conditions: dose 1-2 µg/ml
# Staphylococcus aureus [14] = assay: Antibacterial activity against methicillin-resistant Staphylococcus aureus ATCC 43300 assessed as inhibition of bacterial growth incubated for 24 hrs; format: functional
# Enterococcus faecalis [15] = assay: Antibacterial activity against vancomycin-resistant Enterococcus faecalis clinical isolate p1-2007225053 assessed as inhibition of bacterial growth incubated for 24 hrs; format: functional
# Pseudomonas aeruginosa [16] = assay: Resistance development in Pseudomonas aeruginosa assessed as increase in MIC measured after 20 days; format: functional, organism-based; conditions: time 20.0 day
# Staphylococcus aureus [17] = assay: Antibacterial activity against Staphylococcus aureus clinical isolate assessed as inhibition of bacterial growth incubated for 24 hrs; format: functional
# Staphylococcus aureus [18] = assay: Antibacterial activity against methicillin resistant Staphylococcus aureus assessed as reduction in metabolic activity by measuring reduction in fluorescence intensity at 0.5 to 2 times MIC incubated for 6 hrs by alamar blue assay; format: functional, organism-based
# Streptococcus pneumoniae = assay: Antibacterial activity against Streptococcus pneumoniae ATCC 6305 assessed as inhibition of bacterial growth incubated for 24 hrs; format: functional
# Enterococcus faecium = assay: Antibacterial activity against Enterococcus faecium ATCC 19434 assessed as inhibition of bacterial growth incubated for 24 hrs; format: functional
# Enterococcus faecalis [19] = assay: Antibacterial activity against vancomycin-resistant Enterococcus faecalis clinical isolate p1-2007226001 assessed as inhibition of bacterial growth incubated for 24 hrs; format: functional
# Cell membrane [20] = assay: Induction of cell membrane damage in Pseudomonas aeruginosa assessed as increase in nucleic acid leakage at 0 to 2 ug/ml incubated for 12 hrs by optical density based microplate reader analysis; format: cell membranes; conditions: dose 0-2 µg/ml
# Staphylococcus aureus [21] = assay: Induction of morphological changes in methicillin resistant Staphylococcus aureus assessed as appearance of wrinkled bacterial surface at 2 ug/ml incubated for 3 hrs by SEM analysis; format: functional, organism-based; conditions: dose 2.0 µg/ml
# Staphylococcus aureus [22] = assay: Antibacterial activity against Staphylococcus aureus ATCC 6538 assessed as inhibition of bacterial growth incubated for 24 hrs; format: functional
# Erythrocyte = assay: Hemolytic activity in human Red blood cells assessed as concentration required for 5% hemolysis measured after 1.5 hrs by absorbance based assay; format: toxicity, cell-based
# Pseudomonas aeruginosa [23] = assay: Antibiofilm activity in Pseudomonas aeruginosa assessed as biofilm eradication measured after 24 hrs by crystal violet staining based analysis; format: functional, organism-based; conditions: dose 1-2 µg/ml
# [24] = Hemolytic activity in human Red blood cells at 256 ug/ml measured after 1.5 hrs by absorbance based assay relative to control; format: toxicity, cell-based, Erythrocyte; conditions: red blood cells (erythrocytes), at 256 µg/mL, read-out: Activity
# HUVEC = assay: Cytotoxicity against HUVEC cells assessed as reduction in cell viability at 0.78 to 25 ug/ml measured after 24 hrs by MTT assay; format: toxicity, cell-based; conditions: human, dose 0.78-25 µg/ml
# Staphylococcus aureus [25] = assay: Resistance development in methicillin resistant Staphylococcus aureus assessed as increase in MIC measured after 20 days; format: functional, organism-based; conditions: time 20.0 day
# Staphylococcus aureus [26] = assay: Antibacterial activity against methicillin resistant Staphylococcus aureus clinical isolate assessed as inhibition of bacterial growth incubated for 24 hrs; format: functional
# Pseudomonas aeruginosa [27] = assay: Induction of intracellular ROS generation in Pseudomonas aeruginosa assessed as increase in fluorescence intensity at 2 ug/ml incubated for 6 hrs in presence of N-acetyl-L-cysteine by DCFH-DA dye based fluorescence analysis; format: functional, organism-based; conditions: dose 2.0 µg/ml
# Staphylococcus aureus [28] = assay: Antibacterial activity against Staphylococcus aureus ATCC 12600 assessed as inhibition of bacterial growth incubated for 24 hrs; format: functional
# Staphylococcus aureus [29] = assay: Potency index, ratio of ciprofloxacin MIC to test compound MIC for antibacterial activity against Staphylococcus aureus clinical isolate assessed as inhibition of bacterial growth incubated for 24 hrs; format: functional
# Staphylococcus aureus [30] = assay: Induction of morphological changes in methicillin resistant Staphylococcus aureus assessed as appearance of blurred intracellular boundaries with disintegration of bacterial structure at 2 ug/ml incubated for 3 hrs by SEM analysis; format: functional, organism-based; conditions: dose 2.0 µg/ml
# Enterococcus faecalis [31] = assay: Antibacterial activity against Enterococcus faecalis clinical isolate assessed as inhibition of bacterial growth incubated for 24 hrs; format: functional
# Pseudomonas aeruginosa [32] = assay: Induction of morphological changes in Pseudomonas aeruginosa assessed as appearance of wrinkled bacterial surface at 2 ug/ml incubated for 3 hrs by SEM analysis; format: functional, organism-based; conditions: dose 2.0 µg/ml
# Cell membrane [33] = assay: Induction of cell membrane depolarization in Pseudomonas aeruginosa assessed as increase in fluorescence intensity at 1 ug/ml measured for 30 mins by DiSC35 dye based fluorescence analysis; format: cell membranes; conditions: dose 1.0 µg/ml
# Cell membrane [34] = assay: Induction of cell membrane depolarization in methicillin-resistant Staphylococcus aureus assessed as increase in fluorescence intensity at 1 ug/ml measured for 30 mins by DiSC35 dye based fluorescence analysis; format: cell membranes; conditions: dose 1.0 µg/ml
# L02 = assay: Cytotoxicity against human L02 cells assessed as reduction in cell viability at 0.78 to 25 ug/ml measured after 24 hrs by MTT assay; format: toxicity, cell-based; conditions: l02, 24 h, dose 0.78-25 µg/ml
smiles,measurement,setting,value
N#CCc1cc2c(cc1F)c(=O)c(C(=O)O)cn2C1CC1,MIC,Escherichia coli,0.5 µg/mL
same,"viability at 24 h, 25 ug/ml",[1],> 90%
same,MIC,Staphylococcus aureus [2],4 µg/mL
same,Activity,Pseudomonas aeruginosa [3],Active
same,Activity,Staphylococcus aureus [4],Active
same,Activity,Cell membrane [5],Active
same,MIC,Staphylococcus aureus [6],0.125 µg/mL
same,MIC,Pseudomonas aeruginosa [7],0.5 µg/mL
same,Ratio,Enterococcus faecalis [8],8
same,MIC,Staphylococcus aureus [9],8 µg/mL
same,Ratio,Pseudomonas aeruginosa [10],32
same,Activity,Cell membrane [11],Active
same,MIC,Klebsiella pneumoniae,1 µg/mL
same,MIC,Staphylococcus aureus [12],0.125 µg/mL
same,Activity,Cell membrane [13],Active
same,MIC,Staphylococcus aureus [14],0.5 µg/mL
same,MIC,Enterococcus faecalis [15],0.125 µg/mL
same,Activity,Pseudomonas aeruginosa [16],inactive
same,MIC,Staphylococcus aureus [17],0.25 µg/mL
same,Activity,Staphylococcus aureus [18],Active
same,MIC,Streptococcus pneumoniae,0.5 µg/mL
same,MIC,Enterococcus faecium,2 µg/mL
same,MIC,Enterococcus faecalis [19],4 µg/mL
same,Activity,Cell membrane [20],Active
same,Activity,Staphylococcus aureus [21],Active
same,MIC,Staphylococcus aureus [22],0.5 µg/mL
same,HC5,Erythrocyte,> 10000 µg/mL
same,Activity,Pseudomonas aeruginosa [23],Dose-Dependent Effect
same,"hemolysis at 1.5 h, 256 ug/ml",[24],< 1%
same,Activity,HUVEC,Non-Toxic
same,Activity,Staphylococcus aureus [25],inactive
same,MIC,Staphylococcus aureus [26],0.5 µg/mL
same,Activity,Pseudomonas aeruginosa [27],inactive
same,MIC,Staphylococcus aureus [28],1 µg/mL
same,Ratio,Staphylococcus aureus [29],8
same,Activity,Staphylococcus aureus [30],Active
same,MIC,Enterococcus faecalis [31],4 µg/mL
same,Activity,Pseudomonas aeruginosa [32],Active
same,Activity,Cell membrane [33],Active
same,Activity,Cell membrane [34],Active
same,Activity,L02,Non-Toxic
